The values that follow come from US20230116602A1, “MCL1 INHIBITORS AND USES THEREOF” (California Institute of Technology, priority 2019, published 2023).

The target of one experiment is MCL1 (Homo sapiens, UniProt Q07820). The experiment in a line: MCL1 affinity assay (competition binding, qPCR readout). Conditions: recombinant MCL1, 11-point 3-fold dilution series. The procedure: Recombinant MCL1, BCL2 and BCXL proteins were prepared in either an E. coli host derived from the BL21 strain or in HEK-293 cells. The recombinant proteins were subsequently tagged with DNA for qPCR detection. Streptavidin-coated magnetic beads were treated for 30 minutes at room temperature with the respective biotinylated peptide ligands for each recombinant protein to generate affinity resins for the assays. The liganded beads were blocked with excess biotin and washed with blocking buffer (SeaBlock (Pierce), 1% BSA, 0.05% Tween 20, 1 mM DTT) to remove unbound ligand and to reduce nonspecific binding. Binding reactions were assembled by combining recombinant protein, liganded affinity beads, and test compounds in 1× binding buffer (20% SeaBlock, 0.17×PBS, 0.05% Tween 20, 6 mM DTT). Test compounds were prepared as 111X stocks in 100% DMSO. The compounds were then diluted directly into the assays such that the final concentration of DMSO was 0.9%. The assay plates were incubated at room temperature with shaking for 1 hour and the affinity beads were washed with wash buffer (1×PBS, 0.05% Tween 20). The beads were then re-suspended in elution buffer (1×PBS, 0.05% Tween 20, 0.5 μM non-biotinylated affinity ligand) and incubated at room temperature with shaking for 30 minutes. The recombinant protein concentration in the eluates was measured by qPCR. Kds were determined using an 11-point 3-fold compound dilution series with three DMSO control points.
Chain of MCL1 (Q07820 whole entry): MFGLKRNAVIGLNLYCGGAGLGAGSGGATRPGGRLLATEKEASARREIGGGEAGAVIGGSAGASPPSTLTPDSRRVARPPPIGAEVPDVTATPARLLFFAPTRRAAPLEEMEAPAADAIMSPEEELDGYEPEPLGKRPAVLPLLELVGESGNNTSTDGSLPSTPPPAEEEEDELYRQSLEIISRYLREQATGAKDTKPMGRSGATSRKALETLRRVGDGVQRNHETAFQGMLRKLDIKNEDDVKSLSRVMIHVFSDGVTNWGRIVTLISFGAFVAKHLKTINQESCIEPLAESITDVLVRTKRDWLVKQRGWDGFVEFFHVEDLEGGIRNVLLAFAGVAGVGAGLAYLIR

Experiment [1] concerns drug-sensitive cell lines of Table 3. As to the kind of experiment: Cell line growth retardation assay, sensitive cohort. Conditions: for IC50: Homo sapiens, 144 h, arithmetic mean of IC50s over the sensitive cohort of Table 3, 6 days growth, read-out: AvgSen IC50; for Fold Diff: average IC50 of resistant cohort divided by average IC50 of sensitive cohort. Format: cell-based, Human. The procedure: (§1) Cells were seeded at densities of 1,000-5,000 cells per well in 48-well tissue culture plates. After a 24 h rest period, cells were treated with compound at 10 μM, 1 μM, […], 0.08 μM, 0.016 μM, and 0.0032 μM. A group of cells were treated with the vehicle in which the compound was prepared and served as a control. Prior to treatment, cells were counted and this count was used as a baseline for the calculation of growth inhibition. The cells were grown in the presence of compounds for 6 days and were counted on day 6. All cell counting was performed using a Synentec Cellavista plate imager. Growth inhibition was calculated as a ratio of cell population doublings in the presence of compound versus the absence of compound. […] IC50 values for each compound were calculated by fitting curves to data points from each dose-response assay using the Proc NLIN function in SAS for Windows version 9.2 (SAS Institute, Inc.).
(§2) Human cancer cell lines were grouped as “sensitive” or “resistant” to MCL1 inhibition based on whether their growth was retarded by AMG-176 (i.e., (1′S,11R,12S,14E,16S,16aR,18aR)-6′-Chloro-3′,4′,12,13,16,16a,17,18,18a,19-decahydro-16-methoxy-11,12-dimethyl-,Spiro[5,7-etheno-1H,11H-cyclobut[i][1,4]oxazepino[3,4-f][1,2,7]thiadiazacyclohexadecine-2(3H),1′(2′H)-naphthalen]-8(9H)-one 10,10-dioxide) or MIK665 (i.e., (R)-2-((5-(3-chloro-2-methyl-4-(2-(4-methylpiperazin-1-yl)ethoxy)phenyl)-6-(4-fluorophenyl)thieno[2,3-d]pyrimidin-4-yl)oxy)-3-(2-((2-(2-methoxyphenyl)pyrimidin-4-yl)methoxy)phenyl)propanoic acid) (data not shown; see Table 3). These sensitive and resistant cohorts were interrogated for response to each compound, and IC50S were calculated for each cell line using the same technique described above. Average IC50S for the sensitive (“AvgSen IC50”) and resistant (“AvgRes IC50”) cohorts were calculated as arithmetic means of the group, and fold differences (“Fold Diff”) between the resistant and sensitive cohorts were calculated by diving the average IC50 for the resistant cohort by the average IC50 for the sensitive cohort. “A” represents an IC50 of 1 μM or less, “B” represents an IC50 of greater than 1 μM to 5 μM, “C” represents an IC50 of greater than 5 μM, “+” represents a fold difference of 10 or more, and “−” represents a fold difference less than 10.

Experiment [2] concerns drug-resistant cell lines of Table 3. The experiment in a line: Cell line growth retardation assay, resistant cohort. Conditions: Homo sapiens, 144 h; arithmetic mean of IC50s over the resistant cohort of Table 3, 6 days growth; read-out: AvgRes IC50. Format: cell-based, Human. The procedure: as §1, §2

As to `COc1cccc(-c2ncc3snc(O[C@H](Cc4ccccc4OCc4ccnc(N5CCC(OC(F)F)CC5)n4)C(=O)O)c3c2-c2ccc(OCCN3CCN(C)CC3)c(Cl)c2C)c1` (atropisomer, axis not shown) [Compound 63], on MCL1, the dissociation constant Kd fell in the range of 501 to 1500 nM. Moreover, the figures for the IC50 in experiment [1] and in experiment [2] were 1000 to 5000 nM and above 5000 nM, respectively. The “Fold Diff” value in experiment [1] is listed as “− (“−” represents a fold difference less than 10)”.
For `COc1ccccc1-c1nccc(COc2ccccc2C[C@@H](Oc2nsc3cnc(-c4cnc(C)o4)c(-c4ccc(OCCN5CCN(C)CC5)c(Cl)c4C)c23)C(=O)O)n1` (atropisomer, axis not shown) [Compound 77] the same measures were at most 100 nM, 1000 to 5000 nM, above 5000 nM and “− (“−” represents a fold difference less than 10)”.
For `COc1cccc(-c2ncc3snc(O[C@H](Cc4ccccc4OCc4ccnc(OCCC(F)(F)F)n4)C(=O)O)c3c2-c2ccc(OCCN3CCN(C)CC3)c(Cl)c2C)c1` (atropisomer, axis not shown) [Compound 57] the same measures were at most 100 nM, at most 1000 nM, above 5000 nM and “+ (“+” represents a fold difference of 10 or more)”.
The matching figures for `Cc1c(-c2c(C3CCC3)ncc3snc(O[C@H](Cc4ccccc4OCc4ccnc(-c5ccncc5)n4)C(=O)O)c23)ccc(OCCN2CCN(C)CC2)c1Cl` (atropisomer, axis not shown) [Compound 74]: above 1500 nM, above 5000 nM, above 5000 nM and “− (“−” represents a fold difference less than 10)”.
Turning to `COc1cc(-c2ncc3snc(O[C@H](Cc4ccccc4OCc4ccnc(-c5ccccc5OC)n4)C(=O)O)c3c2-c2ccc(OCCN3CCN(C)CC3)c(Cl)c2C)ccc1F` (atropisomer, axis not shown) [Compound 37], the Kd at MCL1 was in the range of 101 to 500 nM. Besides, in experiment [1], the half-inhibitory concentration (IC50) was above 5000 nM and the “Fold Diff” value is “− (“−” represents a fold difference less than 10)”. In experiment [2], the 50% inhibitory concentration (IC50) is above 5000 nM.
With `COc1ccccc1-c1nccc(COc2ccccc2C[C@@H](Oc2nsc3cnc(-c4cnn(CC5CCC5)c4)c(-c4ccc(OCCN5CCN(C)CC5)c(Cl)c4C)c23)C(=O)O)n1` (atropisomer, axis not shown) [Compound 90], on MCL1, the Kd was in the range of 101 to 500 nM. Besides, in experiment [1], the half-maximal inhibitory concentration (IC50) was 1000 to 5000 nM and the “Fold Diff” value is recorded as “− (“−” represents a fold difference less than 10)”. Also, the half-maximal inhibitory concentration (IC50) in experiment [2] is above 5000 nM.
For `CCOc1cccc(-c2ncc3snc(O[C@H](Cc4ccccc4OCc4ccnc(-c5ccccc5OC)n4)C(=O)O)c3c2-c2ccc(OCCN3CCN(C)CC3)c(Cl)c2C)c1` (atropisomer, axis not shown) [Compound 87] the same measures were at most 100 nM, at most 1000 nM, “+ (“+” represents a fold difference of 10 or more)” and above 5000 nM.
For `Cc1c(-c2c(C3CCC3)ncc3snc(O[C@H](Cc4ccccc4OCc4ccnc(C5CCC(F)(F)CC5)n4)C(=O)O)c23)ccc(OCCN2CCN(C)CC2)c1Cl` (atropisomer, axis not shown) [Compound 110] the same measures were at most 100 nM, at most 1000 nM, “+ (“+” represents a fold difference of 10 or more)” and above 5000 nM.
For `COc1ccccc1-c1nccc(COc2ccccc2C[C@@H](Oc2nsc3cnc(-c4cccc(F)c4)c(-c4ccc(OCCN(C)C)c(Cl)c4C)c23)C(=O)O)n1` (atropisomer, axis not shown) [Compound 55] the same measures were at most 100 nM, at most 1000 nM, “+ (“+” represents a fold difference of 10 or more)” and above 5000 nM.
For `Cc1c(Cl)c2cc(Cl)cnc2n1-c1cc(CC2CCC2)c2c(O[C@H](Cc3ccccc3OCc3ccnn3CC(F)(F)F)C(=O)O)nsc2c1` [Compound 101], the equilibrium dissociation constant (Kd) on MCL1 is above 1500 nM. In addition, in experiment [1], the half-inhibitory concentration (IC50) was above 5000 nM and the “Fold Diff” value is given as “− (“−” represents a fold difference less than 10)”. The concentration for half-maximal inhibition (IC50) in experiment [2] is above 5000 nM.
